In PMC5915836, “Chiral probes for α1-AGP reporting by species-specific induced circularly polarised luminescence” (Chemical Science, 2018):

Experiments:
[1] = target: T1, bovine α1-AGP (α1-acid glycoprotein) (Bos taurus, UniProt Q3SZR3); experiment: competitive displacement of [EuL^[…]], Eu emission; assay type: binding; design: unit not given here; settings: pH 7.40, 298 K; competitive with [EuL^1]
T1 construct: gene ORM1
T1 sequence (Q3SZR3 19-202): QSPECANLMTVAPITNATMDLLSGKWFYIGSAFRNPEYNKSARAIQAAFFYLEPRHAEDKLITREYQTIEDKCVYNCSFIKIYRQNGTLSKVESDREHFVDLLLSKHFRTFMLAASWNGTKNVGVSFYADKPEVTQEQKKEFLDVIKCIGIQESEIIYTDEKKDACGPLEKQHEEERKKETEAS

[2] = target: T2, human α1-AGP (α1-acid glycoprotein); settings: pH 7.40, 298 K; competitive with [EuL^1]
T2 construct: gene ORM1

- Bupivacaine [1]: 6.4
- Bupivacaine [2]: 5.6
SMILES: CCCCN1CCCCC1C(=O)Nc1c(C)cccc1C (centres unmarked) [bupivacaine]
